Experimental data: paper PMC10004634 (PLOS ONE, 2023)
Where two headings read alike, the source gives them in different places.

Experiments:
Experiment in all cases: biochemical
Design in all cases: KINOMEscan scanMAX competition binding, DNA-tagged kinases, qPCR read-out, percent control at 300 nM
AKT3 = AKT3 (Homo sapiens, UniProt Q9Y243)
ITK = biological target: T1, ITK (Homo sapiens, UniProt Q08881)
T1 sequence (Q08881 1-620): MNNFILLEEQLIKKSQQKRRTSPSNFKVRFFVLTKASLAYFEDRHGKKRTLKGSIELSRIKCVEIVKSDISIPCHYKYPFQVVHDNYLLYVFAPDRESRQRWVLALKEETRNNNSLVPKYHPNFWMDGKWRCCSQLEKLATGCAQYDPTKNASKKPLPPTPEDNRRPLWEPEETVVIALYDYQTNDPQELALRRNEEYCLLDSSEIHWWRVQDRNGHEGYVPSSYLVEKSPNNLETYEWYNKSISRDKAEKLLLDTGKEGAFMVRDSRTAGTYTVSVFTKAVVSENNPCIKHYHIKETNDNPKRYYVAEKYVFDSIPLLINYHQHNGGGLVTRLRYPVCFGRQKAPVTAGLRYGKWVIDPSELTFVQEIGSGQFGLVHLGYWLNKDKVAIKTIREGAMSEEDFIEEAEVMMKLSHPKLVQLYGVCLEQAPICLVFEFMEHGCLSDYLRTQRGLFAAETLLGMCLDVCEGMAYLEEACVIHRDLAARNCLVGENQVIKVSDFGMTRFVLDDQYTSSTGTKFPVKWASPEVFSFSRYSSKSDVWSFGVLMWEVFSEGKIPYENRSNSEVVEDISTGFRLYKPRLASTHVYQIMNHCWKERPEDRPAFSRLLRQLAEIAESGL

PIK3CA(Q546K) = PIK3CA(Q546K) (Homo sapiens, UniProt P42336, Q546K)
RIPK4 = biological target: T2, RIPK4 (Homo sapiens, UniProt P57078)
T2 sequence (P57078 1-832): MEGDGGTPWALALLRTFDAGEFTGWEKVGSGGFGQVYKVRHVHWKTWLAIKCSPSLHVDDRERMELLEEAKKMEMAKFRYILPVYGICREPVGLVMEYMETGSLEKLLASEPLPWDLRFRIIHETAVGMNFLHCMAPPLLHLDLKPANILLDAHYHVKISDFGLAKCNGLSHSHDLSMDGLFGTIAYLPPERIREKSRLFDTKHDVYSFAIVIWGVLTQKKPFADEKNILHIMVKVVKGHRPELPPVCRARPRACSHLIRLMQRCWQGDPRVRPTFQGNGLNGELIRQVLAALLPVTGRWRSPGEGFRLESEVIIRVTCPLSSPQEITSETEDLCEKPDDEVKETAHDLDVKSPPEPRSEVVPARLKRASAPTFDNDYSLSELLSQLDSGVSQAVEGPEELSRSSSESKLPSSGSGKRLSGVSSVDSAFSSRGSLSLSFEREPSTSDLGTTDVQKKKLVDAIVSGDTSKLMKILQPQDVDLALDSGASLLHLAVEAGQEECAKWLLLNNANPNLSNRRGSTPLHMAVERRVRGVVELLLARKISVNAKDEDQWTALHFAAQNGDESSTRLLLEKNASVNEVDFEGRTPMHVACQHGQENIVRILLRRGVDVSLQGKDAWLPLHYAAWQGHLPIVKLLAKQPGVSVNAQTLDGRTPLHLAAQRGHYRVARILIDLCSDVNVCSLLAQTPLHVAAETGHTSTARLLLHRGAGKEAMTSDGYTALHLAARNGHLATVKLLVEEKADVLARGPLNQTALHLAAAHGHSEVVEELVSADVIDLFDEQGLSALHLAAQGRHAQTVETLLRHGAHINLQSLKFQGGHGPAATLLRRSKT

NEK3 = biological target: T3, NEK3 (Homo sapiens, UniProt P51956)
T3 sequence (P51956 1-506): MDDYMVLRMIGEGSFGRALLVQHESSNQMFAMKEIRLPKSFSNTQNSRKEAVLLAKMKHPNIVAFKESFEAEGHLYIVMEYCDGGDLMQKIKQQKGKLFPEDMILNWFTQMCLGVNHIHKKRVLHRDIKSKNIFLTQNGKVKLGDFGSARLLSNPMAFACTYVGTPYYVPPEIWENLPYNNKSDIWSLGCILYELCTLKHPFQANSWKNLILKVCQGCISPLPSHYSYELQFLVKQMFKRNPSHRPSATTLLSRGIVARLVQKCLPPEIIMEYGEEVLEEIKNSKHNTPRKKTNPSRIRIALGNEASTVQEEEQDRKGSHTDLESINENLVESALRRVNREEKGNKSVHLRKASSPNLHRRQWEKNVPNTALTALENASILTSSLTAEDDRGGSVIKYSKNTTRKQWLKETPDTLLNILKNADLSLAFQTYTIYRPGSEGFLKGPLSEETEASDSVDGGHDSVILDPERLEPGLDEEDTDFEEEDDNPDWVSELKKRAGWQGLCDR

[1] = read-out: Percent control / Tirabrutinib
[2] = read-out: Percent control / Ibrutinib
[3] = read-out: Percent control / Zanubrutinib
[4] = read-out: Percent control / Acalabrutinib

Chain of PIK3CA(Q546K) (P42336 whole entry Q546K): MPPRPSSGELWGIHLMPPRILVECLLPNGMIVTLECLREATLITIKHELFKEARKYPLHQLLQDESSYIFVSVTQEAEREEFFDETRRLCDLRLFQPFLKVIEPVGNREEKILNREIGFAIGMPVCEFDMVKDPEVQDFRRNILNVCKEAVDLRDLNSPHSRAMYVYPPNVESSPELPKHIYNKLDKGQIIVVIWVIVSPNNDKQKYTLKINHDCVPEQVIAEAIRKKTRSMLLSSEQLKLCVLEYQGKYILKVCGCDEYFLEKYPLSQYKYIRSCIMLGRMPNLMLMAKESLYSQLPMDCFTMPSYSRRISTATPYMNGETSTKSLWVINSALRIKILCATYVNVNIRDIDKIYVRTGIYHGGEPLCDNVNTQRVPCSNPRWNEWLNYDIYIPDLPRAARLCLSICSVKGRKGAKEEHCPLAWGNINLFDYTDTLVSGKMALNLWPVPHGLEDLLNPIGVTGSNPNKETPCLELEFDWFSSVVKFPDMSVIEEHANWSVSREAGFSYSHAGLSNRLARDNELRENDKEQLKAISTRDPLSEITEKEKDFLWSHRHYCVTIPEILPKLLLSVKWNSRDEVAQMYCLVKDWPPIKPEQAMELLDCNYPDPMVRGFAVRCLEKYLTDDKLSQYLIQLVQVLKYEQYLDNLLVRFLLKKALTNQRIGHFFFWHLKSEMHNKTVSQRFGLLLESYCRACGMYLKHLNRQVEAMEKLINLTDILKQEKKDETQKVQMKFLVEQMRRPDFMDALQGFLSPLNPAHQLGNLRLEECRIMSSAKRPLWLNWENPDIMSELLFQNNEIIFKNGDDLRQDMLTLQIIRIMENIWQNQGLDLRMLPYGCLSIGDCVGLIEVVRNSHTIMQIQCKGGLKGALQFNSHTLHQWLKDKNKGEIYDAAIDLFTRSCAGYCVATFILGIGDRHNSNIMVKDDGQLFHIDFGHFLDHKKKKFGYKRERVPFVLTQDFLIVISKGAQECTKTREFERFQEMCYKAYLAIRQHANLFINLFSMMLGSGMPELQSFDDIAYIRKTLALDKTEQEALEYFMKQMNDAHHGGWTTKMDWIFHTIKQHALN
Chain of AKT3 (Q9Y243 whole entry): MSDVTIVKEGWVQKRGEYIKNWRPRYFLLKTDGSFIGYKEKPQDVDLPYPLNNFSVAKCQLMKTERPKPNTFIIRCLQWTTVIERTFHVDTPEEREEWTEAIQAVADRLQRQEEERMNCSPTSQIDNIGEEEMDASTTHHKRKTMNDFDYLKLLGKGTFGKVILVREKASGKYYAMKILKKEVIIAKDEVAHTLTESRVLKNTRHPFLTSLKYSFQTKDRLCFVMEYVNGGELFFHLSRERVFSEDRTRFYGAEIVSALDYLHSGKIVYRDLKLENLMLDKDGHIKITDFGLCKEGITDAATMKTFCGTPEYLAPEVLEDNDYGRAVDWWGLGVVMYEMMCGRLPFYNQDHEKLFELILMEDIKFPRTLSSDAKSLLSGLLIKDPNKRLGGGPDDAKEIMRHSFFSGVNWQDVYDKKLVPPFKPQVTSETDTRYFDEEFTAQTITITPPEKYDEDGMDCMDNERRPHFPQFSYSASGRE

CC#CC(=O)N1CC[C@@H](n2c(=O)n(-c3ccc(Oc4ccccc4)cc3)c3c(N)ncnc32)C1 [Tirabrutinib]
remaining binding at 0.3 µM (AKT3; [1]): 83% | remaining binding at 0.3 µM (ITK; [1]): 99% | remaining binding at 0.3 µM (PIK3CA(Q546K); [1]): 78% | remaining binding at 0.3 µM (RIPK4; [1]): 70%

C=CC(=O)N1CCC[C@@H](n2nc(-c3ccc(Oc4ccccc4)cc3)c3c(N)ncnc32)C1 [Ibrutinib]
remaining binding at 0.3 µM (ITK; [2]): 27% | remaining binding at 0.3 µM (NEK3; [2]): 99% | remaining binding at 0.3 µM (PIK3CA(Q546K); [2]): 62% | remaining binding at 0.3 µM (RIPK4; [2]): 76%

C=CC(=O)N1CCC([C@@H]2CCNc3c(C(N)=O)c(-c4ccc(Oc5ccccc5)cc4)nn32)CC1 [Zanubrutinib]
remaining binding at 0.3 µM (AKT3; [3]): 84% | remaining binding at 0.3 µM (ITK; [3]): 97% | remaining binding at 0.3 µM (NEK3; [3]): 100% | remaining binding at 0.3 µM (PIK3CA(Q546K); [3]): 100% | remaining binding at 0.3 µM (RIPK4; [3]): 91%

CC#CC(=O)N1CCC[C@H]1c1nc(-c2ccc(C(=O)Nc3ccccn3)cc2)c2c(N)nccn12 [Acalabrutinib]
remaining binding at 0.3 µM (AKT3; [4]): 95% | remaining binding at 0.3 µM (ITK; [4]): 97% | remaining binding at 0.3 µM (NEK3; [4]): 95% | remaining binding at 0.3 µM (PIK3CA(Q546K); [4]): 88% | remaining binding at 0.3 µM (RIPK4; [4]): 85%
